“Also recorded” adds a separate entry of the source. Where two headings read alike, the source gives them in different places.
Tests used:
uterine gland = conditions: repetitive injections of neonatal ewe lambs; oviduct, cervix, vagina not inhibited; cited from earlier work
female rats = test: Fertility test with fertility-proven male rats; assay type: in vivo; conditions: neonatally treated rats tested at 5 months
Procedure: Neonatal P4 Silastic capsule implant induces permanent infertility. Starting at 5-months of age, the estrous cycle was determined by microscopy of vaginal smears for 10 days (Table 1). […] After the estrous cycle observation, female rats were caged with fertility-proven male rats for 1 month to evaluate fertility. Seventy-five percent (¾) of the Control untreated and Oil-P4 groups were fertile, averaging 12 and 13 pups, respectively. By comparison, none of the sC-P4 was fertile.
Experiments with Silastic capsules. Neonatal female rats (3-day-old [D3]) were divided into 3 groups for the treatment (Chart 1). The Control group was subcutaneously (sc) injected with sesame oil daily for 7-days. The Oil-P4 group was injected sc with progesterone (P4) (0.5 mg P4/50 μl oil) daily for 7-days. The sC-P4 group was implanted sc with a given single P4 Silastic capsule (sC-P4) (2 mg P4/5 μl oil in a Silastic capsule having dimensions: ID 1.02 mm, OD 2.16 mm, Length 8 mm). Sera were collected by tail clipping (n=5-7) on days 6, 10, 14 and 24, and serum P4 was measured by P4-specific ELISA kit (EIA5486, DRG International Inc., NJ). Uterine histology was examined in weeks 7 and 28. […] The number of uterine glands was counted from HE-stained uterine tissue sections (n=2-4). At 5-months-old, the estrous cycle was monitored for 10 days by vaginal cytology (n=2-4). […]

uterine glands = conditions: cited from earlier work
[1] = Serum P4 in neonatal rats after P4 treatment (P4-specific ELISA); assay type: in vivo; conditions: repeated daily injections of P4 (Oil-P4 group)
Procedure: FIG. 2. Pharmacokinetics of progesterone treatment in neonatal rats. Three-day-old rats were treated with 2.0 mg P4 Silastic capsule, (n=5-7), injected daily with 0.5 mg P4 for 7 days (n=5-9), or vehicle (n=5-9).
Experiments with Silastic capsules. Neonatal female rats (3-day-old [D3]) were divided into 3 groups for the treatment (Chart 1). The Control group was subcutaneously (sc) injected with sesame oil daily for 7-days. The Oil-P4 group was injected sc with progesterone (P4) (0.5 mg P4/50 μl oil) daily for 7-days. The sC-P4 group was implanted sc with a given single P4 Silastic capsule (sC-P4) (2 mg P4/5 μl oil in a Silastic capsule having dimensions: ID 1.02 mm, OD 2.16 mm, Length 8 mm). Sera were collected by tail clipping (n=5-7) on days 6, 10, 14 and 24, and serum P4 was measured by P4-specific ELISA kit (EIA5486, DRG International Inc., NJ). Uterine histology was examined in weeks 7 and 28. Collected uterine tissues were fixed in 4% paraformaldehyde. Tissues were washed with ethanol, processed, and embedded in paraffin wax. Paraffin-embedded tissue blocks were cut into 6 μm thick sections. For general histological observation, slides were stained with hematoxylin and eosin (HE staining). The number of uterine glands was counted from HE-stained uterine tissue sections (n=2-4). At 5-months-old, the estrous cycle was monitored for 10 days by vaginal cytology (n=2-4). […]

| maximum increase in serum P4 levels compared to the Control ([1]; 6 days after the start of injections) | time serum P4 remained significantly elevated ([1]; experimental day 16) | Compound | adenogenesis (uterine gland) | fertility outcome (female rats) | adenogenesis at PND 10 (uterine glands; mice treated with P4 during PND 3-5 or 7-9) | adenogenesis at PND 10 (uterine glands; mice treated with P4 during PND 3-9, 5-9, or 3-7) | uterine glands in adulthood (uterine glands; mice treated with P4 during PND 3-9) | uterine gland development on PND 20 (uterine glands; mice treated with P4 during PND 5-9 or 3-7) |
| --- | --- | --- | --- | --- | --- | --- | --- | --- |
| – | – | CC(=O)O[C@]1(C(C)=O)CC[C@H]2[C@@H]3CCC4=CC(=O)CC[C@@H]4[C@H]3[C@@H](C)C[C@@]21C [norgestomet] | irreversibly inhibits adenogenesis | – | – | – | – | – |
| 2 fold | 10 days | CC(=O)[C@H]1CC[C@H]2[C@@H]3CCC4=CC(=O)CC[C@]4(C)[C@H]3CC[C@]12C [P4, progesterone] | – | insufficient to achieve infertility | not | abolished adenogenesis | lacked glands in adulthood; also recorded: lack uterine glands in adulthood | resumption of uterine gland development |

— US20250152606A1, “INDUCTION OF IRREVERSIBLE INFERTILITY IN FEMALE MAMMALIAN ANIMALS USING A SINGLE PROGESTERONE IMPLANT” (THE BOARD OF TRUSTEES OF THE UNIVERSITY OF ILLINOIS, priority 2022, published 2025)
